{
  "source": "ChEMBL document CHEMBL5465560",
  "about": "“Selectivity Literature for EUbOPEN Chemogenomic Library” (2024)",
  "key": {"[1]": {"biological_target": "T1, Serine/threonine-protein kinase 17A (Homo sapiens) (UniProt Q9UEE5)", "T1 sequence (whole entry)": "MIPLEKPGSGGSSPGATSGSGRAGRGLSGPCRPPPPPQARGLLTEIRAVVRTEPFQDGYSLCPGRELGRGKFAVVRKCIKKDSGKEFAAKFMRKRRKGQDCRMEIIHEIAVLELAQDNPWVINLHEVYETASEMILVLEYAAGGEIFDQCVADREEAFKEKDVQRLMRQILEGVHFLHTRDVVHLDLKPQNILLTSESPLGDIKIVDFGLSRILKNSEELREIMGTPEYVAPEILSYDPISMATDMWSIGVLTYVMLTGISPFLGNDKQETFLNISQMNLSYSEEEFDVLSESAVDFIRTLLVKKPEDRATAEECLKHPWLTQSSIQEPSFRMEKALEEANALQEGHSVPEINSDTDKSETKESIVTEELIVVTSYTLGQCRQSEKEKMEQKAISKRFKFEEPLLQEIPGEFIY", "test": "Selectivity interaction (Upstate Kinase Profiler service (Millipore)) EUB0000056c STK17A", "conditions": "at 1 µM"}, "[2]": {"biological_target": "T2, Hormonally up-regulated neu tumor-associated kinase (Homo sapiens) (UniProt P57058)", "T2 sequence (whole entry)": "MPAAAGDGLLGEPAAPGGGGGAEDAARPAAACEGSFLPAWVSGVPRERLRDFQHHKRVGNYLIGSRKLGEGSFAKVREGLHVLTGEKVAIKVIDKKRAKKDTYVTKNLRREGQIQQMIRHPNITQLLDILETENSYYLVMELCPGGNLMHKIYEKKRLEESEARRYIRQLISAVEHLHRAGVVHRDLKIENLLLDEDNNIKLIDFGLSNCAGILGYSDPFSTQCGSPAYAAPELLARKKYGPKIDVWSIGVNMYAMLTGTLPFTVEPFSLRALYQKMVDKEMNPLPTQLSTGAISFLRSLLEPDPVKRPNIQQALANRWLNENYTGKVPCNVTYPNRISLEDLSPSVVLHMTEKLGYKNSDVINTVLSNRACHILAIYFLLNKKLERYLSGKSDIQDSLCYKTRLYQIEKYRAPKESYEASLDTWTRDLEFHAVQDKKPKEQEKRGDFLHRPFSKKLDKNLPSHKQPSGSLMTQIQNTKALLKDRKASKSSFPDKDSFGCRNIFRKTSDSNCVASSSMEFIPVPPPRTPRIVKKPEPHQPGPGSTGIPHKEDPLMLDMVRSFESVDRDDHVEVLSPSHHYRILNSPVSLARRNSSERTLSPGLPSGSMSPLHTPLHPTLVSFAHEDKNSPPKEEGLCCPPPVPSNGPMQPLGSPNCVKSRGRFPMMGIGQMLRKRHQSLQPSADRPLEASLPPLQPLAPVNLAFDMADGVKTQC", "test": "Selectivity interaction (KinomeScan (DiscoverX)) EUB0000655a HUNK", "conditions": "at 10 µM"}, "[3]": {"biological_target": "T3, Ephrin type-A receptor 3 (Homo sapiens) (UniProt P29320)", "T3 sequence (whole entry)": "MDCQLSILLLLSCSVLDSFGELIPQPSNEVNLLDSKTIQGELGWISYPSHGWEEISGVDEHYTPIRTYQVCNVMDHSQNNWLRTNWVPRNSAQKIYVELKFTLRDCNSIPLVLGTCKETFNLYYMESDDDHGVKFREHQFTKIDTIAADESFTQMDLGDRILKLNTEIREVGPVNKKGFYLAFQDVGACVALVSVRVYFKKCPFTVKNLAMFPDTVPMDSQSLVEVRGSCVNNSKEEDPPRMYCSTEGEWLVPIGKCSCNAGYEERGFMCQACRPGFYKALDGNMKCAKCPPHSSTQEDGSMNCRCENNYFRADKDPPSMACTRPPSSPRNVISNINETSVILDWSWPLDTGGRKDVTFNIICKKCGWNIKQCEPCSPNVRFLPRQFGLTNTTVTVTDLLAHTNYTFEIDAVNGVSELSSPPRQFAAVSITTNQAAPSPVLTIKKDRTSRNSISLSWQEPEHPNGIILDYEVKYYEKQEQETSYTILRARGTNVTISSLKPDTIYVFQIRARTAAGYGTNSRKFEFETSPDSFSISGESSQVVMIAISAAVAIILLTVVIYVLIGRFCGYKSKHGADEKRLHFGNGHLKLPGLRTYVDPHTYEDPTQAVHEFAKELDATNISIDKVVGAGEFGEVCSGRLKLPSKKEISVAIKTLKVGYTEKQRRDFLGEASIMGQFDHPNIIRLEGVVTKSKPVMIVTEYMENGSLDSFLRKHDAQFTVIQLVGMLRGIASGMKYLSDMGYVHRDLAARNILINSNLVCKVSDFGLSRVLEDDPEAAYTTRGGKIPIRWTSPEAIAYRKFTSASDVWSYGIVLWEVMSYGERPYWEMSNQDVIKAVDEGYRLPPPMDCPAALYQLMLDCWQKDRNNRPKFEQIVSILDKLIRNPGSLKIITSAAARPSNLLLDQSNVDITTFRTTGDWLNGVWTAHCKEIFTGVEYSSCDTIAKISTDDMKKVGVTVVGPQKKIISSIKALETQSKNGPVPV", "test": "Selectivity interaction (LanthaScreen Eu Kinase Binding Assay) EUB0001632a EPHA3", "conditions": "at 10 µM"}, "[4]": {"biological_target": "WD repeat-containing protein 5 (Homo sapiens) (UniProt P61964)", "test": "Selectivity interaction (PWWP, WD40, and Tudor domain panel (DSLS measurements, literature)) EUB0000270b WDR5"}, "[5]": {"biological_target": "Homeodomain-interacting protein kinase 3 (Homo sapiens, UniProt Q9H422)", "sequence (Q9H422 whole entry, looked up)": "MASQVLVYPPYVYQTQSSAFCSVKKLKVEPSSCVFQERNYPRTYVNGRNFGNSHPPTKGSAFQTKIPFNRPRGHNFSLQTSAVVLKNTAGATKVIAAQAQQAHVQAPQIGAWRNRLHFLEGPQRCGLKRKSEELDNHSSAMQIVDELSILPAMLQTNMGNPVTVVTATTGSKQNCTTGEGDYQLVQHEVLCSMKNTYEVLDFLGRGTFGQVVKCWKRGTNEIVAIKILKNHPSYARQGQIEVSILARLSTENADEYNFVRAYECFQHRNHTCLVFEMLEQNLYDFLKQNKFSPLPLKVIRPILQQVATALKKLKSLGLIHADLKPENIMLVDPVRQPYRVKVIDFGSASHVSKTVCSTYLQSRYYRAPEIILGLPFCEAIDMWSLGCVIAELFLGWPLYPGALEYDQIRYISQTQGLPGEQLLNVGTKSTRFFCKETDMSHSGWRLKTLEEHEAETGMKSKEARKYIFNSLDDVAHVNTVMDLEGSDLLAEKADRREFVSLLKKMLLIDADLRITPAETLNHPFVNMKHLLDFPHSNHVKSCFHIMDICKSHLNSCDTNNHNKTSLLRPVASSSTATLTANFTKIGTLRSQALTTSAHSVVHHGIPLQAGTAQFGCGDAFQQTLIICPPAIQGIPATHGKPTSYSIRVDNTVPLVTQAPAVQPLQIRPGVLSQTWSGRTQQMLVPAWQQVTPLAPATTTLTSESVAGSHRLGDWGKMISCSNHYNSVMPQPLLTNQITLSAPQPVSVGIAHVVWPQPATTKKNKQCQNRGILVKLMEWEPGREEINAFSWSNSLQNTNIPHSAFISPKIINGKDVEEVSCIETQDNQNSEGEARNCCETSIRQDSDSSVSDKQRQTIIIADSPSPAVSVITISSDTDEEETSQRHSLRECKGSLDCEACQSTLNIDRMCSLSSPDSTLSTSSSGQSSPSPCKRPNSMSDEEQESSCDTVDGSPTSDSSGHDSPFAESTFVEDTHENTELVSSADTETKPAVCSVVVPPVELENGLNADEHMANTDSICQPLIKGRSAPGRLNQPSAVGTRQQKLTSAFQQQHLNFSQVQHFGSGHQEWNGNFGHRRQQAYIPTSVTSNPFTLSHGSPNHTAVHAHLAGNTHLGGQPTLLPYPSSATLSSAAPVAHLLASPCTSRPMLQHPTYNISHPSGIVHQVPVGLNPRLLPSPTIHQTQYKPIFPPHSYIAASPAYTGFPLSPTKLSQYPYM", "test": "Selectivity interaction (KinomeScan (DiscoverX)) EUB0001049a HIPK3", "conditions": "at 1 µM"}, "[6]": {"biological_target": "Mitogen-activated protein kinase kinase kinase 4 (Homo sapiens) (UniProt Q9Y6R4)", "sequence (Q9Y6R4 whole entry)": "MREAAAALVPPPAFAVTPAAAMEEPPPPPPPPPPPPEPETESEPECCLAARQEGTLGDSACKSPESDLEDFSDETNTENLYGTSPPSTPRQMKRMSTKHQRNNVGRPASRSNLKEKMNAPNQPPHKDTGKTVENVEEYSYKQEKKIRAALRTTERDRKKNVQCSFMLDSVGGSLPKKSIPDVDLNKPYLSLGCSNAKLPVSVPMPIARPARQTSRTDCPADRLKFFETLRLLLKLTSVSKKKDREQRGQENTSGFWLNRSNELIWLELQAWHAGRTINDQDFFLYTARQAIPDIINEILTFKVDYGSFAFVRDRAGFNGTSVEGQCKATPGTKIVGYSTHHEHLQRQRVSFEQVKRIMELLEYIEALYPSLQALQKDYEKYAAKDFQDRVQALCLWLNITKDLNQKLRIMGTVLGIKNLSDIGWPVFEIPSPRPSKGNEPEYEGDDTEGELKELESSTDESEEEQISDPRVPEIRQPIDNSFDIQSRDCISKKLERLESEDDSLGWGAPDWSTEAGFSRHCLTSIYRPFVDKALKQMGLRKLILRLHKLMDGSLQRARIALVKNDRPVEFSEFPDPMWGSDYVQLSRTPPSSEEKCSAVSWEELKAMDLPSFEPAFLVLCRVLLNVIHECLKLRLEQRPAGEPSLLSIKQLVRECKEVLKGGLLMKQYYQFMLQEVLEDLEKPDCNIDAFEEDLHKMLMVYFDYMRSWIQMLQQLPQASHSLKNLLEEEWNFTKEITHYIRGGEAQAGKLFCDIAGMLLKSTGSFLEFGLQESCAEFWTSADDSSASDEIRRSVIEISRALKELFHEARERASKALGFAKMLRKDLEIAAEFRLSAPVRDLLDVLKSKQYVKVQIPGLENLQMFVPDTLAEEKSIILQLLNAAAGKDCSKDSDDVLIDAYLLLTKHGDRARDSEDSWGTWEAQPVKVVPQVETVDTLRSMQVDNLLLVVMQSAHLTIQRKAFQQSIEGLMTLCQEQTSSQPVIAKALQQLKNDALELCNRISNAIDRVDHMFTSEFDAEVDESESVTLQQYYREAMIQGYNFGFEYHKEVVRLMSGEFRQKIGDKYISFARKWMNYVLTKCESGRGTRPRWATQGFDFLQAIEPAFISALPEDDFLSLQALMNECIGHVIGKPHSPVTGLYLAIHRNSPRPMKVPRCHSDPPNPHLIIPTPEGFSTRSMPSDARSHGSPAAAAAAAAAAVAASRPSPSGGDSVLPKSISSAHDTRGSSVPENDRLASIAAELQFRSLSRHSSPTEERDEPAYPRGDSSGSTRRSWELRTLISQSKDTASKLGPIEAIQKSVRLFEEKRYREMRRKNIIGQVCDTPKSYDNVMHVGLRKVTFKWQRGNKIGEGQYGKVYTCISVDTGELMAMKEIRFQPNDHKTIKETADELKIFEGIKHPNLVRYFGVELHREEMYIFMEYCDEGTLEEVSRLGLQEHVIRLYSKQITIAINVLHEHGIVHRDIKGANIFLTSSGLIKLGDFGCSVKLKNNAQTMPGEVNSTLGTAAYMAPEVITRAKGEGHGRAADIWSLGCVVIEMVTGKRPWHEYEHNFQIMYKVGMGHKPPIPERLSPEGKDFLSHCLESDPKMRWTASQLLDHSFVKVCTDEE", "test": "Selectivity interaction (KinomeScan (DiscoverX)) EUB0000595a MAP3K4", "conditions": "at 10 µM"}},
  "data": [
    {"smiles": "Cc1ccc(-c2ccc3c(ccc4sc5c(c43)NC[C@@H](C)NC5=O)n2)cn1", "values": [
      {"measurement": "% of inhibition", "setting": "[1]", "result": 88, "unit": "%"}
    ]},
    {"smiles": "CN(C)CCOc1ccc(-c2nc(-c3ccncc3)c(-c3ccc4c(c3)CC/C4=N\\O)[nH]2)cc1", "values": [
      {"measurement": "% of control", "setting": "[2]", "result": 84, "unit": "%"}
    ]},
    {"smiles": "Cn1cc(-n2cnc3c(NCc4nc5cc(Cl)c(Cl)cc5[nH]4)nc(N4CCOCC4)nc32)cn1", "values": [
      {"measurement": "% of inhibition", "setting": "[3]", "result": -19.5, "unit": "%"}
    ]},
    {"smiles": "Cc1cc(CN)cc(C)c1-c1ncn(C)c1-c1cncn1C", "values": [
      {"measurement": "dTagg", "setting": "[4]", "result": -0.7, "unit": "K"}
    ]},
    {"smiles": "COc1cc(Nc2nc(C)cc(-c3cnn4nc(OC)ccc34)n2)cc(C(F)(F)F)c1", "values": [
      {"measurement": "% of control", "setting": "[5]", "result": 95, "unit": "%"}
    ]},
    {"smiles": "COCC(=O)NC/C=C/c1ccc2ncnc(Nc3ccc(Oc4ccc(C)nc4)c(C)c3)c2c1", "note": "[CP-724714]", "values": [
      {"measurement": "% of control", "setting": "[6]", "result": 97, "unit": "%"}
    ]}
  ]
}
